Laboratory results taken from patent US8563542B2 (Cyclacel Limited, priority 2007, dated 2013).

The molecules below were run against PLK1 (Homo sapiens, UniProt P53350) (assay: PLK1 protein kinase assay (CDC25C phosphorylation, [γ-32P]-ATP)). Conditions: Table 2, PLK1 IC50; class symbols; read-out: PLK1 IC50.
Assay type: biochemical

Chain of PLK1 (P53350 whole entry): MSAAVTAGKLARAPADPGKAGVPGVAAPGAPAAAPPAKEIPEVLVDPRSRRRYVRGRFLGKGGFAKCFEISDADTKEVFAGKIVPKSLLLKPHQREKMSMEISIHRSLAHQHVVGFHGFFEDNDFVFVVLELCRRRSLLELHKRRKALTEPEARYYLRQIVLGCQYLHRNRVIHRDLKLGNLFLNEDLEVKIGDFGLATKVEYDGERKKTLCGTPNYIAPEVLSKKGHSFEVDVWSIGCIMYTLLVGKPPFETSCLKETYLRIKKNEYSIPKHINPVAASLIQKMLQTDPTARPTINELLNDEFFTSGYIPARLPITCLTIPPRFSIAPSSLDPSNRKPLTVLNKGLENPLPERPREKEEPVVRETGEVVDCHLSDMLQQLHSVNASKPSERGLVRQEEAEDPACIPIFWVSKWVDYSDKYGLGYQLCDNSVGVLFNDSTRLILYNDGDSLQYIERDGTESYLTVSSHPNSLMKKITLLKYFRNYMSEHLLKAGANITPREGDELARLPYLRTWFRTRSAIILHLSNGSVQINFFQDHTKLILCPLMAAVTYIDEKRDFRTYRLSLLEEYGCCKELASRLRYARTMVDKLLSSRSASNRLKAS

Compound | IC50
COc1ccc(C(=O)NCCO)cc1Nc1ncc2c(n1)N(C1CCCC1)CCC(=O)N2C [compound 145, 3-(9-Cyclopentyl-5-methyl-6-oxo-6,7,8,9-tetrahydro-5H-pyrimido[4,5-b][1,4]diazepin-2-ylamino)-N-(2-hydroxy-ethyl)-4-methoxy-benzamide] | < 1000 nM
COc1cc(C(=O)N(C)CCCN(C)C)ccc1Nc1ncc2c(n1)N(C1CCCC1)CCC(=O)N2C [compound 147, 4-(9-Cyclopentyl-5-methyl-6-oxo-6,7,8,9-tetrahydro-5H-pyrimido[4,5-b][1,4]diazepin-2-ylamino)-N-(3-dimethylamino-propyl)-3-methoxy-N-methyl-benzamide] | < 1000 nM
CCN(CC)CCNC(=O)c1ccc(Nc2ncc3c(n2)N(C2CCCC2)CCC(=O)N3C)c(OC)c1 [compound 148, 4-(9-Cyclopentyl-5-methyl-6-oxo-6,7,8,9-tetrahydro-5H-pyrimido[4,5-b][1,4]diazepin-2-ylamino)-N-(2-diethylamino-ethyl)-3-methoxy-benzamide] | < 100 nM
COc1cc(C(=O)NCCCN(C)C)ccc1Nc1ncc2c(n1)N(C1CCCC1)CCC(=O)N2C [compound 149, 4-(9-Cyclopentyl-5-methyl-6-oxo-6,7,8,9-tetrahydro-5H-pyrimido[4,5-b][1,4]diazepin-2-ylamino)-N-(3-dimethylamino-propyl)-3-methoxy-benzamide] | < 1000 nM
COc1cc(C(=O)N[C@H]2c3ccccc3C[C@H]2O)ccc1Nc1ncc2c(n1)N(C1CCCC1)CCC(=O)N2C [compound 150, 4-(9-Cyclopentyl-5-methyl-6-oxo-6,7,8,9-tetrahydro-5H-pyrimido[4,5-b][1,4]diazepin-2-ylamino)-N-((1S,2R)-2-hydroxy-indan-1-yl)-3-methoxy-benzamide] | < 1000 nM
COc1cc(C(=O)N[C@@H](CO)C(C)C)ccc1Nc1ncc2c(n1)N(C1CCCC1)CCC(=O)N2C [compound 152, 4-(9-Cyclopentyl-5-methyl-6-oxo-6,7,8,9-tetrahydro-5H-pyrimido[4,5-b][1,4]diazepin-2-ylamino)-N-((R)-1-hydroxymethyl-2-methyl-propyl)-3-methoxy-benzamide] | < 1000 nM
COc1cc(C(=O)NC2CCN(Cc3ccccc3)CC2)ccc1Nc1ncc2c(n1)N(C1CCCC1)CCC(=O)N2C [compound 157, N-(1-Benzyl-piperidin-4-yl)-4-(9-cyclopentyl-5-methyl-6-oxo-6,7,8,9-tetrahydro-5H-pyrimido[4,5-b][1,4]diazepin-2-ylamino)-3-methoxy-benzamide] | < 100 nM
COc1cc(C(=O)NC2CN3CCC2CC3)ccc1Nc1ncc2c(n1)N(C1CCCC1)CCC(=O)N2C (centres unmarked) [compound 161, N-(1-Aza-bicyclo[2.2.2]oct-3-yl)-4-(9-cyclopentyl-5-methyl-6-oxo-6,7,8,9-tetrahydro-5H-pyrimido[4,5-b][1,4]diazepin-2-ylamino)-3-methoxy-benzamide] | < 100 nM
COc1cc(C(=O)NC2CC(C)(C)N(C)C(C)(C)C2)ccc1Nc1ncc2c(n1)N(C1CCCC1)CCC(=O)N2C [compound 162, 4-(9-Cyclopentyl-5-methyl-6-oxo-6,7,8,9-tetrahydro-5H-pyrimido[4,5-b][1,4]diazepin-2-ylamino)-3-methoxy-N-(1,2,2,6,6-pentamethyl-piperidin-4-yl)-benzamide] | < 100 nM
COc1cc(C(=O)NCC(C)(C)CN(C)C)ccc1Nc1ncc2c(n1)N(C1CCCC1)CCC(=O)N2C [compound 165, 4-(9-Cyclopentyl-5-methyl-6-oxo-6,7,8,9-tetrahydro-5H-pyrimido[4,5-b][1,4]diazepin-2-ylamino)-N-(3-dimethylamino-2,2-dimethyl-propyl)-3-methoxy-benzamide] | < 100 nM
COc1cc(C(=O)N(CCO)CCO)ccc1Nc1ncc2c(n1)N(C1CCCC1)CCC(=O)N2C [compound 167, 4-(9-Cyclopentyl-5-methyl-6-oxo-6,7,8,9-tetrahydro-5H-pyrimido[4,5-b][1,4]diazepin-2-ylamino)-N,N-bis-(2-hydroxy-ethyl)-3-methoxy-benzamide] | < 10000 nM
COc1cc(C(=O)NCCOCCO)ccc1Nc1ncc2c(n1)N(C1CCCC1)CCC(=O)N2C [compound 168, 4-(9-Cyclopentyl-5-methyl-6-oxo-6,7,8,9-tetrahydro-5H-pyrimido[4,5-b][1,4]diazepin-2-ylamino)-N-[2-(2-hydroxy-ethoxy)-ethyl]-3-methoxy-benzamide] | < 1000 nM
CCN(CC)CCNC(=O)c1ccc(Nc2ncc3c(n2)N(C2CCCC2)CC2(CC2)C(=O)N3C)c(OC)c1 [compound 182, 4-(9-Cyclopentyl-5-methyl-6-oxo-6,7,8,9-tetrahydro-5H-spiro[pyrimido[4,5-b][1,4]diazepin-3,1′-cyclopropane]-2-ylamino)-N-(2-diethylamino-ethyl)-3-methoxy-benzamide] | < 100 nM
COc1cc(C(=O)NCCCN(C)C)ccc1Nc1ncc2c(n1)N(C1CCCC1)CC1(CC1)C(=O)N2C [compound 183] | < 100 nM
COc1cc(C(=O)NCCCCO)ccc1Nc1ncc2c(n1)N(C1CCCC1)CC1(CC1)C(=O)N2C [compound 185, 4-(9-Cyclopentyl-5-methyl-6-oxo-6,7,8,9-tetrahydro-5H-spiro[pyrimido[4,5-b][1,4]diazepin-3,1′-cyclopropane]-2-ylamino)- -N-(4-hydroxy-butyl)-3-methoxy-benzamide] | < 100 nM
COc1cc(C(=O)NC2CCCN(C)C2)ccc1Nc1ncc2c(n1)N(C1CCCC1)CC1(CC1)C(=O)N2C (centres unmarked) [compound 187, 4-(9-Cyclopentyl-5-methyl-6-oxo-6,7,8,9-tetrahydro-5H-spiro[pyrimido[4,5-b][1,4]diazepin-3,1-cyclopropane]-2-ylamino)-3-methoxy-N-(1-methyl-piperidin-3-yl)-benzamide] | < 100 nM

The next lines start with the values.

IC50 | Compound
< 1000 nM | COc1ccc(C(=O)NC2CCN(C)CC2)cc1Nc1ncc2c(n1)N(C1CCCC1)CCC(=O)N2C [compound 143, 3-(9-Cyclopentyl-5-methyl-6-oxo-6,7,8,9-tetrahydro-5H-pyrimido[4,5-b][1,4]diazepin-2-ylamino)-4-methoxy-N-(1-methyl-piperidin-4-yl)-benzamide]
< 1000 nM | CNC(=O)c1ccc(OC)c(Nc2ncc3c(n2)N(C2CCCC2)CCC(=O)N3C)c1 [compound 144, 3-(9-Cyclopentyl-5-methyl-6-oxo-6,7,8,9-tetrahydro-5H-pyrimido[4,5-b][1,4]diazepin-2-ylamino)-4-methoxy-N-methyl-benzamide]
< 1000 nM | CCC(CO)NC(=O)c1ccc(Nc2ncc3c(n2)N(C2CCCC2)CCC(=O)N3C)c(OC)c1 (centres unmarked) [compound 153, 4-(9-Cyclopentyl-5-methyl-6-oxo-6,7,8,9-tetrahydro-5H-pyrimido[4,5-b][1,4]diazepin-2-ylamino)-N-(1-hydroxymethyl-propyl)-3-methoxy-benzamide]
< 1000 nM | COc1cc(C(=O)NCC(C)O)ccc1Nc1ncc2c(n1)N(C1CCCC1)CCC(=O)N2C (centres unmarked) [compound 154, 4-(9-Cyclopentyl-5-methyl-6-oxo-6,7,8,9-tetrahydro-5H-pyrimido[4,5-b][1,4]diazepin-2-ylamino)-N-(2-hydroxy-propyl)-3-methoxy-benzamide]
< 1000 nM | COc1cc(C(=O)NC(C)(C)CN2CCCC2)ccc1Nc1ncc2c(n1)N(C1CCCC1)CCC(=O)N2C [compound 155, 4-(9-Cyclopentyl-5-methyl-6-oxo-6,7,8,9-tetrahydro-5H-pyrimido[4,5-b][1,4]diazepin-2-ylamino)-N-(1,1-dimethyl-2-pyrrolidin-1-yl-ethyl)-3-methoxy-benzamide]
< 100 nM | COc1cc(C(=O)NC(C)(C)CN2CCCCC2)ccc1Nc1ncc2c(n1)N(C1CCCC1)CCC(=O)N2C [compound 156, 4-(9-Cyclopentyl-5-methyl-6-oxo-6,7,8,9-tetrahydro-5H-pyrimido[4,5-b][1,4]diazepin-2-ylamino)-N-(1,1-dimethyl-2-piperidin-1-yl-ethyl)-3-methoxy-benzamide]
< 100 nM | COc1cc(C(=O)NCC2CCN(C)CC2)ccc1Nc1ncc2c(n1)N(C1CCCC1)CCC(=O)N2C [compound 158, 4-(9-Cyclopentyl-5-methyl-6-oxo-6,7,8,9-tetrahydro-5H-pyrimido[4,5-b][1,4]diazepin-2-ylamino)-3-methoxy-N-(1-methyl-piperidin-4-ylmethyl)-benzamide]
< 1000 nM | COc1cc(C(=O)NCCCO)ccc1Nc1ncc2c(n1)N(C1CCCC1)CCC(=O)N2C [compound 159, 4-(9-Cyclopentyl-5-methyl-6-oxo-6,7,8,9-tetrahydro-5H-pyrimido[4,5-b][1,4]diazepin-2-ylamino)-N-(3-hydroxy-propyl)-3-methoxy-benzamide]
< 100 nM | COc1cc(C(=O)NN2CCN(C)CC2)ccc1Nc1ncc2c(n1)N(C1CCCC1)CCC(=O)N2C [compound 160, 4-(9-Cyclopentyl-5-methyl-6-oxo-6,7,8,9-tetrahydro-5H-pyrimido[4,5-b][1,4]diazepin-2-ylamino)-3-methoxy-N-(4-methyl-piperazin-1-yl)-benzamide]
< 100 nM | COc1cc(C(=O)NC2CCCN(C)C2)ccc1Nc1ncc2c(n1)N(C1CCCC1)CCC(=O)N2C (centres unmarked) [compound 163, 4-(9-Cyclopentyl-5-methyl-6-oxo-6,7,8,9-tetrahydro-5H-pyrimido[4,5-b][1,4]diazepin-2-ylamino)-3-methoxy-N-(1-methyl-piperidin-3-yl)-benzamide]
< 1000 nM | CCC(O)CNC(=O)c1ccc(Nc2ncc3c(n2)N(C2CCCC2)CCC(=O)N3C)c(OC)c1 (centres unmarked) [compound 164, 4-(9-Cyclopentyl-5-methyl-6-oxo-6,7,8,9-tetrahydro-5H-pyrimido[4,5-b][1,4]diazepin-2-ylamino)-N-(2-hydroxy-butyl)-3-methoxy-benzamide]
< 1000 nM | COc1cc(C(=O)NCCO)ccc1Nc1ncc2c(n1)N(C1CCCC1)CCC(=O)N2C [compound 166, 4-(9-Cyclopentyl-5-methyl-6-oxo-6,7,8,9-tetrahydro-5H-pyrimido[4,5-b][1,4]diazepin-2-ylamino)-N-(2-hydroxy-ethyl)-3-methoxy-benzamide]
< 1000 nM | CONC(=O)c1ccc(Nc2ncc3c(n2)N(C2CCCC2)CCC(=O)N3C)c(OC)c1 [compound 169, 4-(9-Cyclopentyl-5-methyl-6-oxo-6,7,8,9-tetrahydro-5H-pyrimido[4,5-b][1,4]diazepin-2-ylamino)-3,N-dimethoxy-benzamide]
